Paper PMC9413440, “An Iterative Approach Guides Discovery of the FabI Inhibitor Fabimycin, a Late-Stage Antibiotic Candidate with In Vivo Efficacy against Drug-Resistant Gram-Negative Infections” (ACS Central Science, 2022)
Converted amounts (≈) assume the structure as drawn. Read-outs that look alike come from different tables or passages of the source.

How the values were obtained:
[1] = test system: Bacteroides fragilis ATCC 25285; assay: MIC, commensal bacteria; type: cell-based; conditions: ATCC25285
Protocol: (§1) II. Materials and Methods for Biological Experiments
(§2) S. aureus ATCC 29213 and E. coli MG1655 were obtained from the American Type Culture Collection (ATCC). E. coli BW25113 and E. coli JW5503 were obtained from the Keio Collection. AR-bank strains were obtained from the Centers for Disease Control and Prevention and FDA Antibiotic Resistance Isolate Bank.
(§3) Antimicrobial susceptibility tests
(§4) Susceptibility testing was performed in biological triplicate, unless noted otherwise, using the micro-dilution broth method as outlined by the Clinical and Laboratory Standards Institute. Bacteria were cultured with cation-adjusted Mueller Hinton broth (Sigma Aldrich, catalogue number: 90922). […]
(§5) Error bars represent the standard error of the mean of three biological replicates. All compounds evaluated in biological assays were ≥95% pure.

[2] = test system: Stenotrophomonas maltophilia ATCC 13637; assay: MIC, commensal bacteria; type: cell-based; conditions: ATCC13637
Protocol: as §1, §2, §3, §4, §5

[3] = test system: Streptococcus salivarius KLE 2370; assay: MIC, commensal bacteria; type: cell-based; conditions: KLE2370
Protocol: as §1, §2, §3, §4, §5

[4] = test system: Vancomycin-resistant Enterococcus (VRE); assay: MIC, vancomycin-resistant Enterococcus strains; type: cell-based
Protocol: as §1, §2, §3, §4
NH3: m/z 391.2 → 171.0. Fabimycin: m/z 405.3 → 145.3. Power analysis was not used to determine the number of replicates. Error bars represent the standard error of the mean of three biological replicates. All compounds evaluated in biological assays were ≥95% pure.

[5] = test system: A. baumannii clinical isolates (n=100); assay: MIC50/MIC90, clinical isolate panel; type: cell-based; conditions: Acinetobacter baumannii
in vivo = assay: in vivo
Source text: Mouse maximum tolerated dose (MTD) of fabimycin
The protocol to assess fabimycin’s murine MTD when formulated in 20% sulfobutyl ether(7) β-cyclodextrin (SBE-β-CD) in H2O was approved by the Institutional Animal Care and Use Committee (IACUC) at the University of Illinois at Urbana-Champaign (protocol number: 19181). […]
from Charles River were used. Mice were randomly chosen and divided into subsequent groups. No additional randomization was used to allocate the experimental groups; blinding was not performed for subsequent quantitation.
The MTD of a single dosage of a given compound was determined before evaluating the MTD of multiple dosages. […]
weeks (single dose). The single-dose MTDs were determined first. For multiple doses, the compound was given by daily […]
highest dosage with acceptable toxicity (<20% weight loss). MTD values shown for Debio-1452-NH3 are as previously reported.3 MTD values for fabimycin when formulated in 17% Cremophor EL/3% SBE-β-CD were drawn from infection models conducted with neutropenic A. baumannii-infected mice (see below). […]
River Licensee) weighing 18 ± 2 grams were used.10 All animals were specific pathogen free. Mice were rendered neutropenic via cyclophosphamide (CP) administration by two intraperitoneal (IP) injections following a standard method for mouse thigh infection models.11 The first CP dose, 150 mg/kg, was administered at four days before infection (Day –4); and the second, 100 mg/kg, at 24 h before infection (Day –1), prior to infection on Day 0.

S. aureus USA300 LAC = assay: Neutropenic thigh infection model; type: in vivo, mouse; conditions: neutropenic CD-1 mice, MRSA clinical isolate; 5 mg/kg retro-orbital IV 2 and 7 h postinfection; burden at 24 h
Protocol: Neutropenic thigh infection model
Acclimated CD-1 mice (see above) were rendered neutropenic prior to the experiment via cyclophosphamide treatment. […]
For the gram-positive infection model S. aureus USA300LAC was established intramuscular injection at 2.3 * 10^6 CFU/mouse. Mice were treated with FabI inhibitors at 2 and 7 hours post-infection with burden being assessed at 24 hours post-infection. […]
The protocol to assess fabimycin’s efficacy in A. baumannii-infected mice (strain: AR-0088) was approved by the IACUC at Pharmacology Discovery Services, Taiwan, Ltd. (protocol number: IM003-01282019). In this study, neutropenic female BALB/c mice 7-8 weeks in age from BioLASCO Taiwan (AAALAC-certified Charles River Licensee) weighing 18 ± 2 grams were used. The mice were rendered neutropenic and inoculated in the same method as used for the pharmacokinetic study. […]
Animals were euthanized using compressed CO2 gas in a CO2 gas chamber. […] Bacterial burden in the tissue homogenates was determined by performing 10-fold serial dilutions and plating 0.1 mL of each to nutrient agar plates. Colonies were counted after 18 - 24 h incubation. The colony-forming unit value per tissue (CFU/thigh) was calculated. […]
IM011-12282020). […] Tissues were collected and pathogen burden evaluated by dilution plating technique on nutrient agar plates.

[6] = A. baumannii (n=100) clinical isolates

Cc1c(CN(C)C(=O)/C=C/c2cnc3c(c2)CC[C@H](N)C(=O)N3)oc2ccccc12 [fabimycin]
MIC [1]: > 128 µg/mL
MIC [2]: 128 µg/mL (≈ 316 µM)
MIC [3]: > 128 µg/mL
MIC ([4]; ATCC 1593 / VRE): 128 µg/mL (≈ 316 µM)
MIC ([4]; ATCC 1768 / VRE): > 128 µg/mL
MIC ([4]; ATCC 2059 / VRE, VRE ATCC 2059, read-out: MIC): 64 µg/mL (≈ 158 µM)
MIC ([4]; ATCC 2431 / VRE): > 128 µg/mL
MIC ([4]; ATCC 2574 / VRE): > 128 µg/mL
MIC ([4]; ATCC 3053 / VRE, VRE ATCC 3053, read-out: MIC): 64 µg/mL (≈ 158 µM)
MIC ([4]; ATCC 3183 / VRE, VRE ATCC 3183, read-out: MIC): 64 µg/mL (≈ 158 µM)
MIC ([4]; ATCC 3190 / VRE): > 128 µg/mL
MIC ([4]; ATCC 3191 / VRE): 128 µg/mL (≈ 316 µM)
MIC ([4]; ATCC 29212 / VRE): 128 µg/mL (≈ 316 µM)
MIC50 [5, 6]: 4 µg/mL (≈ 9.89 µM)
MIC90 [5, 6]: 8 µg/mL (≈ 19.8 µM)
MIC ([5]; the 1 pan-resistant strain of the 100 A. baumannii clinical isolates): 1 µg/mL (≈ 2.47 µM)
MTD (in vivo; BALB/c, mouse, iv): 100 mg/kg
MTD at 1 day (in vivo; BALB/c, mouse, iv): 75 mg/kg
MTD at 3 d (in vivo; BALB/c, mouse, iv): 75 mg/kg
MTD at 2 weeks (in vivo; female, C57BL/6, mouse, ip): > 200 mg/kg
MTD at 1 day (in vivo; female, C57BL/6, mouse, ip): > 200 mg/kg
MTD at 5 d (in vivo; female, C57BL/6, mouse, ip): > 100 mg/kg
reduction of bacterial burden (S. aureus USA300 LAC): significantly greater reduction of bacterial burden relative to Debio-1452
